Our source for the IC50 values is US20240417398A1, “TETRAHYDRONAPTHYRIDINE AND RELATED ANALOGS FOR INHIBITING YAP/TAZ-TEAD” (SpringWorks Therapeutics, Inc., priority 2023, published 2024).

Some results are limits rather than exact numbers.

For this experiment, the system named is YAP/TAZ-TEAD transcription. Nature of the experiment: Reporter gene assay for measuring the inhibition of YAP/TAZ-TEAD transcription (TEAD-responsive element luciferase reporter, Hek293T cells). It is filed as cell-based. The following applies: Homo sapiens, HEK-293T, 24 h, Hek293T cells transfected with TEAD-responsive element luciferase reporter, 24 hours incubation. The procedure: Hek293T cells were cultured in DMEM supplemented with 10% fetal bovine serum, Sodium pyruvate, Sodium bicarbonate, L-glutamine. The cells were harvested and transiently transfected with TEAD-responsive element luciferase reporter. Transfected cells were plated in 384-well plate containing pre-diluted compounds. After 24 hours incubation at 37° C./5% CO2, assay plates were cooled to room temperature and levelled to an equal volume per well, prior to the addition of 25 uL luciferase substrate SteadyLite (Perkin Elmer)/well. The plate was shaken for 10 min at 600 rpm, centrifuged for 1 min at 500 rpm and measured with an Envision reader (PerkinElmer). The amount of relative light units produced by the TEAD reporter was used to calculate the percentage of inhibition.
The percent of reporter inhibition was calculated in the presence of a positive control inhibitor (100% inhibition) versus a condition with the presence of the vehicle basal activity of the reporter (0% inhibition). The ability of a test compound to inhibit this activity was determined as: Percentage inhibition=[1-((RLU determined in the presence of vehicle−RLU determined for sample with test compound present) divided by (RLU determined in the presence of vehicle−RLU determined for sample with positive control inhibitor))]*100.
The activities of example compounds tested are depicted in Table 3. The activity ranges A, B and C refer to IC50 values in the reporter gene assay as follows: “A”: IC50<1 μM; “B”: 1 μM≤IC50 10 μM and “C”: IC50>10 μM; NT=not tested.
The term IC50 denotes the concentration needed to halve the response being measured. The low end stands for greater potency in that assay, the high end for weaker potency in that assay. As to `FC(F)(F)c1ccc(N2CC(CNC3COC3)Cc3ncccc32)cc1` (centres unmarked) [Cpd. No. 25, N-((1-(4-(trifluoromethyl)phenyl)-1,2,3,4-tetrahydro-1,5-naphthyridin-3-yl)methyl)oxetan-3-amine], the IC50 was > 10000 nM.

As to `CS(=O)(=O)NCC1Cc2c(OCc3cc[nH]c(=O)c3)cccc2N(c2ccc(C(F)(F)F)cc2)C1` (centres unmarked) [Cpd. No. 9, N-((5-((2-oxo-1,2-dihydropyridin-4-yl)methoxy)-1-(4-(trifluoromethyl)phenyl)-1,2,3,4-tetrahydroquinolin-3-yl)methyl)methanesulfonamide], the IC50 is < 1000 nM.

As for `O=C(O)/C=C/C1Cc2ncccc2N(c2ccc(C(F)(F)F)cc2)C1` (centres unmarked) [Cpd. No. 20, (E)-3-(1-(4-(trifluoromethyl)phenyl)-1,2,3,4-tetrahydro-1,5-naphthyridin-3-yl)acrylic acid], the IC50 was < 1000 nM.

In the case of `CCc1ccc2c(n1)CC(CNC(C)=O)CN2c1ccc(C(F)(F)F)cc1` (centres unmarked) [Cpd. No. 55, N-((6-ethyl-1-(4-(trifluoromethyl)phenyl)-1,2,3,4-tetrahydro-1,5-naphthyridin-3-yl)methyl)acetamide], the half-inhibitory concentration (IC50) was < 1000 nM.

Turning to `O=C1CC[C@@H](C(=O)NCC2Cc3ncccc3N(c3ccc(C(F)(F)F)cc3)C2)N1` (stereo partly drawn) [Cpd. No. 28, (2S)-5-oxo-N-((1-(4-(trifluoromethyl)phenyl)-1,2,3,4-tetrahydro-1,5-naphthyridin-3-yl)methyl)pyrrolidine-2-carboxamide], the IC50 is > 10000 nM.

Regarding `CC(=O)NCC1Cc2ncc(Cl)cc2N(c2ccc(C(F)(F)F)cc2)C1` (centres unmarked) [Cpd. No. 51, N-((7-chloro-1-(4-(trifluoromethyl)phenyl)-1,2,3,4-tetrahydro-1,5-naphthyridin-3-yl)methyl)acetamide], the IC50 was < 1000 nM.

As to `CCC(=O)NCC1Cc2c(Oc3cccnc3)cccc2N(c2ccc(C(F)(F)F)cc2)C1` (centres unmarked) [Cpd. No. 1, N-((5-(pyridin-3-yloxy)-1-(4-(trifluoromethyl)phenyl)-1,2,3,4-tetrahydroquinolin-3-yl)methyl)propionamide], the half-inhibitory concentration (IC50) is < 1000 nM.

Consider `CC(=O)NCC1Cc2ncc(N)cc2N(c2ccc(C(F)(F)F)cc2)C1` (centres unmarked) [Cpd. No. 49, N-((7-amino-1-(4-(trifluoromethyl)phenyl)-1,2,3,4-tetrahydro-1,5-naphthyridin-3-yl)methyl)acetamide], for which the IC50 lay within 1000 to 10000 nM.

Regarding `C=CC(=O)N(CC(=O)O)Cc1cc2c(c(-c3ccc(C(F)(F)F)cc3)c1)CNCC2` [Cpd. No. 36, N-acryloyl-N-((8-(4-(trifluoromethyl)phenyl)-1,2,3,4-tetrahydroisoquinolin-6-yl)methyl)glycine], the concentration for half-maximal inhibition (IC50) is > 10000 nM.

For the compound `CC(C)C(=O)NCC1Cc2ncccc2N(c2ccc(C(F)(F)F)cc2)C1` (centres unmarked) [Cpd. No. 39, N-((1-(4-(trifluoromethyl)phenyl)-1,2,3,4-tetrahydro-1,5-naphthyridin-3-yl)methyl)isobutyramide], the IC50 is < 1000 nM.

`COc1ccc2c(n1)CC(CNC(C)=O)CN2c1ccc(C(F)(F)F)cc1` (centres unmarked) [Cpd. No. 22, N-((6-methoxy-1-(4-(trifluoromethyl)phenyl)-1,2,3,4-tetrahydro-1,5-naphthyridin-3-yl)methyl)acetamide]: the IC50 is < 1000 nM.

For `O=C(NCC1Cc2ncccc2N(c2ccc(C(F)(F)F)cc2)C1)c1ccccc1` (centres unmarked) [Cpd. No. 40, N-((1-(4-(trifluoromethyl)phenyl)-1,2,3,4-tetrahydro-1,5-naphthyridin-3-yl)methyl)benzamide], the IC50 fell in the range of 1000 to 10000 nM.

Take `CC(=O)NCC1Cc2nc(N)ccc2N(c2ccc(C(F)(F)F)cc2)C1` (centres unmarked) [Cpd. No. 45, N-((6-amino-1-(4-(trifluoromethyl)phenyl)-1,2,3,4-tetrahydro-1,5-naphthyridin-3-yl)methyl)acetamide]: the half-maximal inhibitory concentration (IC50) is < 1000 nM.

Consider `CC(=O)NCC1Cc2c(ccc(=O)n2C)N(c2ccc(C(F)(F)F)cc2)C1` (centres unmarked) [Cpd. No. 48, N-((5-methyl-6-oxo-1-(4-(trifluoromethyl)phenyl)-1,2,3,4,5,6-hexahydro-1,5-naphthyridin-3-yl)methyl)acetamide], for which the IC50 is > 10000 nM.
